Source: patent US20110124634A1, “BIOACTIVE COMPOUNDS FOR TREATMENT OF CANCER AND NEURODEGENERATIVE DISEASES” (PONIARD PHARMACEUTICALS, INC., priority 2008, published 2011)
Read-outs that look alike come from different tables or passages of the source.

Columns and labels:
Format in all cases: cell-based
SKBR-3 = assay: MTS assay (cytotoxicity), growth inhibition of SKBR-3; conditions: Homo sapiens, SK-BR-3, 120 h
Description: (§1) Cells were seeded in 96-well plates at 2000 cells/well in a final culture volume of 100 ul for 24 hours before the addition of 25 ul of increasing concentrations of inhibitors that was incubated for 5 days. Viable cell number was determined using the CellTiter 96 AQueous One Solution Cell Proliferation Assay (Promega). Plates were read at 490 nm absorbance 2-4 hours after addition of the MTS reagent using a multiwell plate spectrophotometer. Background was determined by measuring the Abs 490 nm of cell culture medium and MTS in the absence of cells. The background value was subtracted from all values. Absorbance 490 nm values for each inhibitor were plotted against the log 10 inhibitor concentration, and IC50 values were calculated using a nonlinear least-square curve fitting program in Prism 5.

BT474 = assay: MTS assay (cytotoxicity), growth inhibition of BT474; conditions: Homo sapiens, BT-474, 120 h
Description: as §1

[1] = tested on: HSP90 client protein Her2 in SKBR-3 cells; assay: Her-2 degradation assay (Her-2 ELISA) in SKBr-3 cells; conditions: Homo sapiens, 18 hours
Description: Most of the compounds synthesized were evaluated for their ability to induce degradation of the HSP90 client protein Her2 in SKBR-3 cells. Selected compounds were evaluated in a fluorescence polarization (FP) assay for their affinity to HSP90.
SKBr-3 cells grown in McCoy's 5a Medium supplemented with 10% fetal bovine serum (FBS) were plated into 12-well plates at 50% confluency. Increasing concentrations of inhibitors were added 24 hours later (cells are 65-70% confluent) and incubated overnight for 18 hours. The wells were washed with 2 ml of phosphate buffered saline (PBS), and 50 ul of trypsin was added to each well. After trypsinization was complete, 150 ul of FBS was added to each well. Then 200 ul of cells were transferred to 96-well plates and plates were centrifuged at 1200 rpm for 2 minutes using a tabletop centrifuge. The cells were washed once with 250 ul PBS before being lysed with 100 ul of 50 mM Tris (pH 7.4), 0.1% NP-40 lysis buffer. Protein concentrations of clarified lysates were determined using the BCA Assay (Calbiochem) according to the manufacturer's instructions. 2 ug of each lysate was analyzed in the human sp 185 Her-2 ELISA (Bender Medsystems) according to the manufacturer's instructions. ELISA plates were read at 450 nm using a multiwell plate spectrophotometer. Background was determined by measuring the Abs 450 nm of wells with no lysate added. The background value was subtracted from all values. Absorbance 450 nm values for each inhibitor were plotted against the log 10 inhibitor concentration, and IC50 values were calculated using a nonlinear least-square curve fitting program in Prism 5.

MCF-7 = assay: MTS assay (cytotoxicity), growth inhibition of MCF-7; conditions: Homo sapiens, MCF7, 120 h
Description: as §1

HT29 = assay: MTS assay (cytotoxicity), growth inhibition of HT29; conditions: Homo sapiens, HT-29, 120 h
Description: as §1

[2] = Table 5, series III, 5 days, read-out: Growth Inhibition (IC50) SKBR-3
[3] = Table 5, series III, 5 days, read-out: Growth Inhibition (IC50) BT474
[4] = Table 5, series III, 5 days, read-out: Growth Inhibition (IC50) MCF-7
[5] = Table 5, series III, 5 days, read-out: Growth Inhibition (IC50) HT29
[6] = Table 4, 5 days, means of three independent experiments, read-out: SKBR-3 IC50 (growth inhibition)
[7] = Table 4, 5 days, means of three independent experiments, read-out: BT474 IC50 (growth inhibition)
[8] = SK-BR-3, Table 1, series I, means of three independent experiments
[9] = Table 4, 5 days, means of three independent experiments, read-out: MCF-7 IC50 (growth inhibition)
[10] = Table 4, 5 days, means of three independent experiments, read-out: HT29 IC50 (growth inhibition)

Row | SMILES | IC50 (SKBR-3; [2]) [nM] | IC50 (BT474; [3]) [nM] | IC50 ([1]; SK-BR-3, Table 5, series III) [nM] | IC50 (MCF-7; [4]) [nM] | IC50 (HT29; [5]) [nM] | IC50 (SKBR-3; [6]) [nM] | IC50 (BT474; [7]) [nM] | IC50 [1, 8] [nM] | IC50 (MCF-7; [9]) [nM] | IC50 (HT29; [10]) [nM]
1 | COc1c(C)cnc(CN2C(=O)/C(=C\c3cc(C(=O)CN4CCC(C(F)(F)F)CC4)c[nH]3)c3c(Cl)nc(N)nc32)c1C [III-94] | 90 | 790 | 80 | 390 | 350 |  |  |  |  | 
2 | COc1c(C)cnc(CN2C(=O)/C(=C\c3cc(C(C)(C)C)n[nH]3)c3c(Cl)nc(N)nc32)c1C [III-52, (Z)-2-Amino-5-((3-tert-butyl-1H-pyrazol-5-yl)methylene)-4-chloro-7-((4-methoxy-3,5-dimethylpyridin-2-yl)methyl)-5H-pyrrolo[2,3-d]pyrimidin-6(7H)-one] | 140 | 410 | 60 | 190 | 240 |  |  |  |  | 
3 | COc1c(C)cnc(CN2C(=O)/C(=C\c3ccc(C(=O)C(F)(F)F)[nH]3)c3c(Cl)nc(N)nc32)c1C [III-8, 2-Amino-4-chloro-7-(4-methoxy-3,5-dimethyl-pyridin-2-ylmethyl)-5-[1-[5-(2,2,2-trifluoro-acetyl)-1H-pyrrol-2-yl]-meth-(Z)-ylidene]-5,7-dihydro-pyrrolo[2,3-d]pyrimidin-6-one] | 150 | 470 | 150 | 810 | 1310 |  |  |  |  | 
4 | COc1c(C)cnc(CN2CC(=O)N(CCN3CCCC3)c3c(Cl)nc(N)nc32)c1C [Example I-7] |  |  |  |  |  | 300 | 520 | 510 | 1320 | 1080
5 | COc1c(C)cnc(CN2C(=O)/C(=C\c3[nH]cnc3C)c3c(Cl)nc(N)nc32)c1C [III-4, 2-Amino-4-chloro-7-(4-methoxy-3,5-dimethyl-pyridin-2-ylmethyl)-5-[1-(5-methyl-3H-imidazol-4-yl)-meth-(Z)-ylidene]-5,7-dihydro-pyrrolo[2,3-d]pyrimidin-6-one] | 160 | 190 | 340 | 530 | 120 |  |  |  |  | 
6 | CCN(CC)CCNC(=O)c1c[nH]c(/C=C2\C(=O)N(Cc3ncc(C)c(OC)c3C)c3nc(N)nc(Cl)c32)c1 [III-19, (Z)-5-((2-Amino-4-chloro-7-((4-methoxy-3,5-dimethylpyridin-2-yl)methyl)-6-oxo-6,7-dihydro-5H-pyrrolo[2,3-d]pyrimidin-5-ylidene)methyl)-N-(2-(diethylamino)ethyl)-1H-pyrrole-3-carboxamide] | 1 | 0.7 | 10 | 70 | 10 |  |  |  |  | 
7 | COc1c(C)cnc(CN2C(=O)/C(=C\c3[nH]c(C)cc3C)c3c(Cl)nc(N)nc32)c1C [III-2, 2-Amino-4-chloro-5-[1-(3,5-dimethyl-1H-pyrrol-2-yl)-meth-(Z)-ylidene]-7-(4-methoxy-3,5-dimethyl-pyridin-2-ylmethyl)-5,7-dihydro-pyrrolo[2,3-d]pyrimidin-6-one] | 960 | 1020 | 1670 | 3650 | 1210 |  |  |  |  | 
8 | COc1c(C)cnc(CN2C(=O)/C(=C\c3cc(C(=O)NCCN(CCO)CCO)c[nH]3)c3c(Cl)nc(N)nc32)c1C [III-30, (Z)-5-((2-Amino-4-chloro-7-((4-methoxy-3,5-dimethylpyridin-2-yl)methyl)-6-oxo-6,7-dihydro-5H-pyrrolo[2,3-d]pyrimidin-5-ylidene)methyl)-N-(2-(bis(2-hydroxyethyl)amino)ethyl)-1H-pyrrole-3-carboxamide] | 20 | 70 | 50 | 680 | 210 |  |  |  |  | 
9 | CCN(CC)CCNC(=O)c1c(C)[nH]c(/C=C2\C(=O)N(Cc3ncc(C)c(OC)c3C)c3nc(N)nc(Cl)c32)c1C [III-102, (Z)-5-((2-Amino-4-chloro-7-((4-methoxy-3,5-dimethylpyridin-2-yl)methyl)-6-oxo-6,7-dihydro-5H-pyrrolo[2,3-d]pyrimidin-5-ylidene)methyl)-N-(2-(diethylamino)ethyl)-2,4-dimethyl-1H-pyrrole-3-carboxamide] | 10 | 70 | 40 | 21300 | 30 |  |  |  |  | 
10 | CCN(CC)CCNC(=O)c1c[nH]c(/C=C2\C(=O)N(Cc3cc(C)n(C)n3)c3nc(N)nc(Cl)c32)c1 [III-59, (Z)-5-((2-Amino-4-chloro-7-((1,5-dimethyl-1H-pyrazol-3-yl)methyl)-6-oxo-6,7-dihydro-5H-pyrrolo[2,3-d]pyrimidin-5-ylidene)methyl)-N-(2-(diethylamino)ethyl)-1H-pyrrole-3-carboxamide] | 60 | 160 | 100 | 1700 | 320 |  |  |  |  | 
11 | COc1c(C)cnc(CN2CC(=O)N(CCCN3CCOCC3)c3c(Cl)nc(N)nc32)c1C [Example I-10] |  |  |  |  |  | 1110 | 1810 | 1550 | 2590 | 2950
12 | COc1c(C)cnc(CN2C(=O)/C(=C\c3cc(C(=O)NCCCN4CCOCC4)c[nH]3)c3c(Cl)nc(N)nc32)c1C [III-34, (Z)-5-((2-Amino-4-chloro-7-((4-methoxy-3,5-dimethylpyridin-2-yl)methyl)-6-oxo-6,7-dihydro-5H-pyrrolo[2,3-d]pyrimidin-5-ylidene)methyl)-N-(3-morpholinopropyl)-1H-pyrrole-3-carboxamide] | 10 | 40 | 20 | 170 | 20 |  |  |  |  | 
13 | COc1c(C)cnc(CN2C(=O)/C(=C\c3cc(C(=O)NCCNC(C)C)c[nH]3)c3c(Cl)nc(N)nc32)c1C [III-21, (Z)-5-((2-Amino-4-chloro-7-((4-methoxy-3,5-dimethylpyridin-2-yl)methyl)-6-oxo-6,7-dihydro-5H-pyrrolo[2,3-d]pyrimidin-5-ylidene)methyl)-N-(2-(isopropylamino)ethyl)-1H-pyrrole-3-carboxamide] | 4 | 10 | 60 | 150 | 60 |  |  |  |  | 
14 | COc1c(C)cnc(CN2C(=O)/C(=C\c3cc(C(=O)NCCO)c[nH]3)c3c(Cl)nc(N)nc32)c1C [III-18, (Z)-5-((2-Amino-4-chloro-7-((4-methoxy-3,5-dimethylpyridin-2-yl)methyl)-6-oxo-6,7-dihydro-5H-pyrrolo[2,3-d]pyrimidin-5-ylidene)methyl)-N-(2-hydroxyethyl)-1H-pyrrole-3-carboxamide] | 30 | 30 | 360 | > 500 | 110 |  |  |  |  | 
15 | COc1c(C)cnc(CN2C(=O)/C(=C\c3nc(NC(=O)C4CCOCC4)c[nH]3)c3c(Cl)nc(N)nc32)c1C [III-75, (Z)-N-(2-((2-Amino-4-chloro-7-((4-methoxy-3,5-dimethylpyridin-2-yl)methyl)-6-oxo-6,7-dihydro-5H-pyrrolo[2,3-d]pyrimidin-5-ylidene)methyl)-1H-imidazol-4-yl)tetrahydro-2H-pyran-4-carboxamide] | 7 | 60 | 90 | 160 | 50 |  |  |  |  | 
16 | COc1c(C)cnc(CN2C(=O)/C(=C\c3cc(C(=O)NCC(O)CO)c[nH]3)c3c(Cl)nc(N)nc32)c1C (centres unmarked) [III-22, (Z)-5-((2-Amino-4-chloro-7-((4-methoxy-3,5-dimethylpyridin-2-yl)methyl)-6-oxo-6,7-dihydro-5H-pyrrolo[2,3-d]pyrimidin-5-ylidene)methyl)-N-(2,3-dihydroxypropyl)-1H-pyrrole-3-carboxamide] | 80 | 110 | 80 | 400 | 360 |  |  |  |  | 
